US20220220100A1 (SOLUTIA CANADA INC., priority 2019, published 2022)

What was measured:
Format in all cases: physicochemical
[1] = Oxidation potential of ring-closed and ring-open isomers; conditions: no unit printed in table (V relative to Ag/AgCl)
[2] = Solubility in Rhodiasolv IRIS solvent; conditions: for Solubility in Rhodiasolv IRIS: Rhodiasolv IRIS (dimethyl-2-methyl glutarate), wt %
Description: A compound with greater solubility allows for a formulation or material with a greater concentration of coloured molecule to be incorporated into a composition. This may allow for increasing the contrast ratio for a compound with a lesser absorbance at PSS. Examples of solubilizing groups for the compound include alkoxy, ether, ester or siloxy groups. In various embodiments, compounds may be soluble in the solvent component at room temperature at about 6 wt %, 7 wt %, 8 wt %, 9 wt %, 10 wt % or greater for testing to determine whether a compound has application as an exterior glazing or optical filter. If the solubility of a compound in the solvent component is too low, then insufficient darkening may be achieved in the ring-closed configuration, depending on conditions of use for the compound.
Chromophore solutions in Rhodiasolv IRIS were prepared at 1 to 10 wt % loading. Solutions were prepared in a glovebox by charging the chromophore and Rhodiasolv IRIS to a trace-clean vial, and the solution was stirred on a hotplate at 90° C. for 2-24 hours. After cooling, the chromophore solution was injected into glass weathering cells and the fill and vent ports were sealed with a thin disc of Kalrez (FFKM Perfluorinated Elastomer) and secured with a clamp and set-screw. The weathering cells were filled and sealed inside the glove box.

[3] = Photostability: xenon arc weathering of chromophore solutions, LCMS analysis; conditions: for Ketone (%) / Minus-2HF (%) / Minus-HF (%) / Sulfone (%) / Chromophore Remaining (%): xenon arc, 82° C. bp; for Ketone (%) / Minus-2HF (%) / Minus-HF (%) / Sulfone (%): linearly interpolated to 0.5 MJ/m2 @ 340 nm; for Chromophore Remaining (%): linearly interpolated to 0.5 MJ/m2 @ 340 nm of exposure energy; for Photostability (in words): weathering experiments
Summary of the method: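 Chromophores were dissolved at 1 to 10 wt % in Rhodiasolv IRIS at 90° C, then sealed under glovebox conditions in glass cells laminated with 400 nm UV-cutoff PVB. The cells were weathered continuously in a xenon arc chamber with no dark or spray cycles. Solutions were then diluted in acetonitrile and analysed by reverse-phase LC-MS.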

[4] = 1 wt %, interpolated to 0.5 MJ/m^2 of energy exposure at 340 nm
[5] = 3 wt %, interpolated to 0.5 MJ/m^2 of energy exposure at 340 nm
[6] = 10 wt %, interpolated to 0.5 MJ/m^2 of energy exposure at 340 nm

| Compound | RC [O] (oxidation potential of ring-closed isomer) [1] | RO [O] (oxidation potential of ring-open isomer) [1] | Solubility in Rhodiasolv IRIS [2] | Photostability (in words) [3] | Ketone (%) ([3]; 3 wt % in Rhodiasolv IRIS) | Minus-2HF (%) ([3]; 3 wt % in Rhodiasolv IRIS) | Minus-HF (%) ([3]; 3 wt % in Rhodiasolv IRIS) | Sulfone (%) ([3]; 3 wt % in Rhodiasolv IRIS) | Chromophore Remaining (%) ([3]; 3 wt % in Rhodiasolv IRIS) | Ratio of chromophore remaining relative to S340 [3, 5] | further results |
| --- | --- | --- | --- | --- | --- | --- | --- | --- | --- | --- | --- |
| COc1cc2oc(-c3ccc(C(C)(C)C)cc3)c(C3=C(c4cc(-c5cc6c(s5)C(C)(C)CCCC6(C)C)sc4-c4cc5c(s4)C(C)(C)CCCC5(C)C)C(F)(F)C(F)(F)C3(F)F)c2cc1OC [Chromophore S405] | 0.91 | 1.28 | >1% | high photostability |  |  |  |  |  |  | Ketone (%) ([3]; 1 wt % in Rhodiasolv IRIS): 2.9%; Minus-2HF (%) ([3]; 1 wt % in Rhodiasolv IRIS): 0.0%; Minus-HF (%) ([3]; 1 wt % in Rhodiasolv IRIS): 0.0%; Sulfone (%) ([3]; 1 wt % in Rhodiasolv IRIS): 0.0%; Chromophore Remaining (%) ([3]; 1 wt % in Rhodiasolv IRIS): 97.1%; Ratio of chromophore remaining relative to S340 [3, 4]: 1.07; Sum of degradation product percentages relative to the sum of degradation product percentages for S340 [3, 4]: 0.33 |
| CC(=O)Oc1cc2oc(-c3ccc(C(C)(C)C)cc3)c(C3=C(c4cc(-c5cc(C(C)(C)C)cs5)sc4-c4cc(C(C)(C)C)cs4)C(F)(F)C(F)(F)C3(F)F)c2cc1OC(C)=O [Chromophore S396, 2-(4-(tert-butyl)phenyl)-3-(2-(4,4″-di-tert-butyl-[2,2′:5′,2″-terthiophen]-3′-yl)-3,3,4,4,5,5-hexafluorocyclopent-1-en-1-yl)benzofuran-5,6-diyl diacetate] | 1.18 | 1.48 | >3% | high photostability | 1.0% | 0.0% | 0.0% | 0.0% | 97.9% | 1.07 |  |
| CC(C)(C)c1ccc(-c2oc3ccccc3c2C2=C(c3cc(-c4ccc(C(C)(C)C)s4)sc3-c3ccc(C(C)(C)C)s3)C(F)(F)C(F)(F)C2(F)F)cc1 [Chromophore S343, 2-(4-(tert-butyl)phenyl)-3-(2-(5,5″-di-tert-butyl-[2,2′:5′,2″-terthiophen]-3′-yl)-3,3,4,4,5,5-hexafluorocyclopent-1-en-1-yl)benzofuran] | 1.1 | 1.37 | <1% | more rapid degradation compared to S340 | 0.0% | 3.1% | 0.0% | 0.0% | 85.2% | 0.93 |  |
| COc1ccc2oc(-c3ccc(C(C)(C)C)cc3)c(C3=C(c4cc(-c5cc6c(s5)C(C)(C)CCC6(C)C)sc4-c4cc5c(s4)C(C)(C)CCC5(C)C)C(F)(F)C(F)(F)C3(F)F)c2c1 [Chromophore S400] | 1.01 | 1.29 | >3% | high photostability | 0.8% | 1.4% | 0.0% | 0.0% | 96.7% | 1.06 |  |
| COc1ccc2oc(-c3ccc(C(C)(C)C)cc3)c(C3=C(c4cc(-c5ccc(C(C)(C)C)s5)sc4-c4ccc(C(C)(C)C)s4)C(F)(F)C(F)(F)C3(F)F)c2c1 [Chromophore S344, 2-(4-(tert-butyl)phenyl)-3-(2-(5,5″-di-tert-butyl-[2,2′:5′,2″-terthiophen]-3′-yl)-3,3,4,4,5,5-hexafluorocyclopent-1-en-1-yl)-5-methoxybenzofuran] | 1.05 | 1.36 | <3% | more rapid degradation compared to S340 | 0.0% | 8.0% | 25.7% | 0.0% | 65.1% | 0.71 |  |
| COc1cc2oc(-c3ccc(C(C)(C)C)cc3)c(C3=C(c4cc(-c5ccc(C(C)(C)C)s5)sc4-c4ccc(C(C)(C)C)s4)C(F)(F)C(F)(F)C3(F)F)c2cc1OC [Chromophore S340, 2-(4-(tert-butyl)phenyl)-3-(2-(5,5″-di-tert-butyl-[2,2′:5′,2″-terthiophen]-3′-yl)-3,3,4,4,5,5-hexafluorocyclopent-1-en-1-yl)-5,6-dimethoxybenzofuran] | 0.95 | 1.35 | 7% | acceptable photostability | 0.0% | 1.0% | 3.5% | 0.0% | 91.1% | 1.00 |  |
| CCOC(=O)CCCOc1cc2oc(-c3ccc(C(C)(C)C)cc3)c(C3=C(c4cc(-c5cc(C(C)(C)C)cs5)sc4-c4cc(C(C)(C)C)cs4)C(F)(F)C(F)(F)C3(F)F)c2cc1OCCCC(=O)OCC [Chromophore S386, diethyl 4,4′-((2-(4-(tert-butyl)phenyl)-3-(2-(4,4″-di-tert-butyl-[2,2′:5′,2″-terthiophen]-3′-yl)-3,3,4,4,5,5-hexafluorocyclopent-1-en-1-yl)benzofuran-5,6-diyl)bis(oxy))dibutanoate] | 0.99 | 1.4 | >10% | high photostability |  |  |  |  |  |  | Formation of the Minus-HF degradation product (in words) [3]: prevents the Minus-HF product; Ketone (%) ([3]; 10 wt % in Rhodiasolv IRIS): 0.0%; Minus-2HF (%) ([3]; 10 wt % in Rhodiasolv IRIS): 0.0%; Minus-HF (%) ([3]; 10 wt % in Rhodiasolv IRIS): 0.0%; Sulfone (%) ([3]; 10 wt % in Rhodiasolv IRIS): 0.0%; Chromophore Remaining (%) ([3]; 10 wt % in Rhodiasolv IRIS): 98.6%; Ratio of chromophore remaining relative to S340 [3, 6]: 1.08 |
| CCOC(=O)CCCOc1cc2oc(-c3ccc(C(C)(C)C)cc3)c(C3=C(c4cc(-c5ccc(C(C)(C)C)s5)sc4-c4sc(C(C)(C)C)cc4C)C(F)(F)C(F)(F)C3(F)F)c2cc1OCCCC(=O)OCC [Chromophore S383, diethyl 4,4′-((2-(4-(tert-butyl)phenyl)-3-(2-(5,5″-di-tert-butyl-3-methyl-[2,2′:5′,2″-terthiophen]-3′-yl)-3,3,4,4,5,5-hexafluorocyclopent-1-en-1-yl)benzofuran-5,6-diyl)bis(oxy))dibutanoate] | 0.91 | 1.36 | >10% |  |  |  |  |  |  |  | Solubility (in words) ([2]; relative to the methoxy parent chromophore): improved solubility; Formation of the Minus-HF degradation product (in words) [3]: does not occur; Ketone (%) ([3]; 10 wt % in Rhodiasolv IRIS): 0.0%; Minus-2HF (%) ([3]; 10 wt % in Rhodiasolv IRIS): 0.0%; Minus-HF (%) ([3]; 10 wt % in Rhodiasolv IRIS): 0.0%; Sulfone (%) ([3]; 10 wt % in Rhodiasolv IRIS): 0.0%; Chromophore Remaining (%) ([3]; 10 wt % in Rhodiasolv IRIS): 100.0%; Ratio of chromophore remaining relative to S340 [3, 6]: 1.10 |
